Like-named read-outs stand apart in the source and are kept apart here.
Tests used:
[1] = test system: fibroblasts isolated from human tunica albuginea (TA); TGF-β1-induced myofibroblast transformation; assay: In Cell ELISA (ICE) phenotypic screening assay of TGF-β1-induced myofibroblast transformation (α-SMA/DNA staining); format: cell-based; conditions: for IC50: co-incubation with 10 ng/ml TGF-β1 for 72 hours, α-SMA/DNA staining ratio, read-out: IC50, inhibition of TGF-β1-induced myofibroblasts transformation
Excerpt: Tunica albuginea tissue samples were collected from patients undergoing surgery at University College London Hospital (UCLH), London, UK for penile cancer or PD. All patients gave fully informed written consent to the study. The study was approved by independent research ethics committees (NRES Committee East of England 12/EE/0170 and NRES Committee North of Scotland 15/NS/0051). PD plaque tissue was obtained from patients with chronic PD undergoing a Lue procedure (plaque incision and grafting). Plaque tissue would have otherwise been discarded. Non-plaque TA was obtained from PD patients undergoing a Nesbit procedure whereby non-fibrotic TA tissue was excised from the opposite side of the plaque. TA tissue samples from patients with penile cancer were taken from the proximal side away from the tumour, with the tumour showing negative margins on histological examination.
Tissue samples were carefully dissected to ensure that all cavernosal tissue was removed from the tunica albuginea (TA). To establish fibroblast cultures, TA fragments were seeded in 6-well tissue culture plates (Nunc, Fisher Scientific, UK) as described previously16. The tissue pieces were incubated in DMEM-F12 (GIBCO, Invitrogen, UK) containing 10% FCS (Fisher Scientific, UK) and 1% penicillin-streptomycin (GIBCO, Invitrogen, UK) at 37° C., 5% CO2 for 5-7 days. Tissue fragments were carefully removed using forceps upon outgrowth of cells. Passages 2 to 4 were used for the rest of the experiments.
Cells were seeded onto 96 well optical flat bottom black microplates (Nunc, Fisher Scientific, UK) at 5×10^3 cells per well. After overnight attachment they were incubated with or without 10 ng/ml TGF-β1 for 72 hours. The cells were then fixed using 4% paraformaldehyde, and blocked with 10% donkey serum and 0.1% Triton X-100 in PBS. The cells were then incubated with anti-α-SMA antibody (1:3,000; Sigma Aldrich, UK) for 2 h. Afterwards cells were incubated with donkey anti-mouse secondary antibody conjugated to an infrared dye which emits at 800 nm (1:500; IRdye 800CW; Li-Cor, UK) and a nuclear counterstain at that emits at 700 nm (1:1,000; DRAQS, Biostatus, UK) for 1 h. The plate was scanned using an infrared imaging system (Odyssey CLx imager, LI-COR, UK) at both the 700 nm and 800 nm wavelengths.
We have isolated primary fibroblasts from the plaque and non-plaque TA of patients with PD. We also isolated primary fibroblasts from TA of patients with penile cancer as non-fibrotic controls.

[2] = test system: TGF-β1-induced myofibroblast collagen contraction, TA-derived fibroblasts; assay: Collagen gel contraction assay (fibroblast populated collagen lattices); format: cell-based, human; conditions: 10 ng/ml TGF-β1; lattices released after 72 h, contraction observed for 8 h
Description: Images were analysed using ImageJ software by measuring the surface area of the contracting lattice. Contraction was calculated as percentage of the surface of the unreleased lattice. Data is shown as percentage of maximum contraction of vehicle control. The two classes of drugs were then tested in functional assays. Firstly, we tested their efficacy in inhibiting collagen gel contraction as a measure of myofibroblast contractility; a characteristic function of myofibroblasts, which separates them from fibroblasts. […] Secondly, we tested the drugs' efficacy in inhibiting ECM protein production, which is again one of the critical characteristic functions of myofibroblasts. […] FIG. 4).

[3] = test system: TGF-β1-induced myofibroblast ECM protein production, cells derived from TA tissue; assay: ECM production assay; format: cell-based; conditions: Homo sapiens, 168 h, 10 ng/ml TGF-β1 for 7 days
Description: Cells were seeded onto 96 well optical flat bottom black microplates (Nunc, Fisher Scientific, UK) at 5×10^3 cells per well. After overnight attachment, they were stimulated with or without 10 ng/ml TGF-β1 and/or compounds for 7 days. DRAQS in PBS (1:1,000) was added and cells were incubated for 5 min at 37° C., 5% CO2 before scanning the plate to obtain nuclear staining. […] Afterwards ECM was stained either with Coomassie Blue (total ECM) overnight at 4° C. or with primary antibodies (collagen I, abcam; collagen III, Millipore; collagen V, abcam: fibronectin, Millipore) at 1:1000 for 1 h on a shaker, followed by incubation with secondary antibody and scanning the plate using an infrared imaging system (Odyssey CLx imager, LI-COR, UK) at both the 700 nm and 800 nm wavelengths. Results were normalized to the cell number before lysis.

[4] = test system: TGF-β1 injection into the rat TA (animal model for PD); assay: Animal model for PD: assessment of erectile function (intracavernous pressure, ICP); format: in vivo, Male Sprague-Dawley rats; conditions: tamoxifen 5 mg/kg/day i.p., vardenafil 1.5 mg/kg/day drinking water, 5 weeks
[5] = test system: TGF-β1 injection into the rat TA (animal model for PD), penile fibrosis; assay: Animal model for PD: molecular and histological analysis of penile tissue (qPCR, Western blot, immunohistochemistry); format: in vivo, Male Sprague-Dawley rats
Excerpt: The animal model for PD was first described by […] Lue^18 and modified by Bivalacqua and Hellstrom^19. Male Sprague-Dawley rats (10-12 weeks old) were housed in a regulated environment with a 12-hour light/dark cycle in a standard experimental laboratory. The animals had free access to food and water ad libitum. Fifty male Sprague-Dawley rats were divided into 5 groups: A: sham (injection of vehicle citrate buffer), B: […] Treatment was initiated at the day after injury and continued for 5 weeks followed by a 48 hours wash-out period. The High-Capacity cDNA Reverse Transcription Kit (Applied Biosystems) was used according to the manufacturer's instructions to transcribe RNA to cDNA. One μg in 10 μl were added to 10 μl of the master mix for reverse transcription for a total reaction volume of 20 μl. After reverse transcription the cDNA was diluted 1:10 for qPCR. The Applied BiosystemsTM TaqManTM Fast Advanced Master Mix was used for qPCR. Gene specific primer pairs for GAPDH, beta-actin, alpha smooth muscle actin, elastin, and collagens I, III, and V were purchased from Applied Biosystems. […] Data was analysed using the 2-ΔΔCt method for relative quantifications. […] Statistical significance, unless otherwise stated, was calculated using one or two-way ANOVA and Student's t-test for unpaired means (two-sided). […]

[6] = Homo sapiens, Fibroblast, 10 ng/ml TGF-β1, 72 hours, read-out: Percentage of inhibition of TGF-β1 induced myofibroblast transformation, Vardenafil only
[7] = Homo sapiens, Fibroblast, read-out: Percentage of inhibition of TGF-β1 induced myofibroblast transformation, Tamoxifen only, 10 ng/ml TGF-β1, 72 hours

**Q.** Which IC50 [1] does the source give for `O=C(c1ccc(OCCN2CCCCC2)cc1)c1c(-c2ccc(O)cc2)sc2cc(O)ccc12` [raloxifene] here?
**A.** Its IC50 is 7 µM.

**Q.** Which IC50 [1] does the source give for `Cc1cccc(-c2[nH]c(C(C)(C)C)nc2-c2ccc3c(c2)OCO3)n1` [SB505124] here?
**A.** Its IC50 is 0.6 µM.

**Q.** Which inhibition at 0.3 µM [1, 6] does the source give for `CCCc1nc(C)c2c(=O)[nH]c(-c3cc(S(=O)(=O)N4CCN(CC)CC4)ccc3OCC)nn12` [vardenafil] here?
**A.** Its inhibition at 0.3 µM is 3 ± 3%.

**Q.** And the inhibition at 1 µM [1, 6]?
**A.** Its inhibition at 1 µM is 10 ± 1%.

**Q.** And the inhibition at 3 µM [1, 6]?
**A.** The inhibition at 3 µM was 8 ± 2%.

**Q.** And the inhibition at 10 µM [1, 6]?
**A.** The inhibition at 10 µM was 17 ± 2%.

**Q.** And the inhibition at 30 µM ([1]; Homo sapiens, Fibroblast, 30 μM, 10 ng/ml TGF-β1, 72 hours, read-out: Percentage of inhibition of TGF-β1 induced myofibroblast transformation, Vardenafil only)?
**A.** Its inhibition at 30 µM is 25 ± 1%.

**Q.** What about the inhibition at 100 µM ([1]; Homo sapiens, Fibroblast, 100 μM, 10 ng/ml TGF-β1, 72 hours, read-out: Percentage of inhibition of TGF-β1 induced myofibroblast transformation, Vardenafil only) of the same molecule?
**A.** Its inhibition at 100 µM is 48 ± 1%.

**Q.** What about the IC50 ([1]; Homo sapiens, Fibroblast) of the same molecule?
**A.** Its IC50 is 30 µM.

**Q.** And the “concentration at which TGF-β1-induced contraction of collagen was inhibited” value [2]?
**A.** The value was 10 µM.

**Q.** What about the IC50 ([3]; read-out: IC50, TGF-β1-induced ECM protein production: collagen I) of the same molecule?
**A.** Its IC50 is 23 µM.

**Q.** What about the IC50 ([3]; read-out: IC50, TGF-β1-induced ECM protein production: collagen III) of the same molecule?
**A.** The IC50 was 17 µM.

**Q.** What about the IC50 ([3]; read-out: IC50, TGF-β1-induced ECM protein production: collagen V) of the same molecule?
**A.** Its IC50 is 23 µM.

**Q.** What about the IC50 ([3]; read-out: IC50, TGF-β1-induced ECM protein production: fibronectin) of the same molecule?
**A.** Its IC50 is 44 µM.

**Q.** For `CCCc1nn(C)c2c(=O)[nH]c(-c3cc(S(=O)(=O)N4CCN(C)CC4)ccc3OCC)nc12` [sildenafil], which IC50 ([1]; Homo sapiens, Fibroblast) is on record?
**A.** The IC50 was 15 µM.

**Q.** Which results are given for `CC/C(=C(\c1ccccc1)c1ccc(OCCN(C)C)cc1)c1ccccc1` [tamoxifen]?
**A.** Percentage of inhibition of TGF-β1 induced myofibroblast transformation, Tamoxifen only ([1]; 100 μM, 10 ng/ml TGF-β1, 72 hours): cell death; inhibition at 0.3 µM [1, 7]: 10 ± 3%; inhibition at 1 µM [1, 7]: 10 ± 2%; inhibition at 3 µM [1, 7]: 10 ± 3%; inhibition at 10 µM [1, 7]: 25 ± 3%; concentration at which TGF-β1-induced contraction of collagen was inhibited [2]: 1 µM; TGF-β1-induced decrease in erectile function (ICP) by 55% [4]: prevented; TGF-β1-induced upregulation of collagen expression (collagens I, III, V mRNA) in penile tissue ([5]; 5 weeks treatment, qPCR): prevented; penile fibrosis in an animal model for PD ([5]; FIG. 5): ameliorate penile fibrosis

**Q.** Which IC50 ([1]; Homo sapiens, Fibroblast) does the source give for `CN1CC(=O)N2[C@H](c3ccc4c(c3)OCO4)c3[nH]c4ccccc4c3C[C@@H]2C1=O` [tadalafil] here?
**A.** The IC50 was 3.5 µM.
